Measurements as given in patent US20060251651A1, “Antagonist and agonist which bind to a strong binding site of chemokine receptor” (priority 2002, published 2006).
Where “and” joins values, the source holds several entries; their conditions need not be identical. Identical values can stand only once. Entries after “also recorded” stand apart in the source; their conditions may differ. Like-named read-outs stand apart in the source and are kept apart here.

Columns and labels:
hCCR5 [1] = target: T1, hCCR5 (Homo sapiens, UniProt P51681); assay: Ligand binding inhibition test for CCR5 under severe washing condition; set-up: expressed in transfected cells; host or cells: CHO-dhfr(-) stably transfected with pEF-BOS-bsr/hCCR5; conditions: for IC50: hCCR5-CHO cells, compound 40 minutes, washed 8 times with PBS, 4 hours at 37° C., then radioisotope-labeled ligand; for inhibitory activity, times higher than that of SCH-351125 / inhibitory activity, times higher than that of TAK-779: ratio of IC50 values under severe washing condition
Experimental: Inhibitory effects of CCR5 antagonists (e.g., TAK-779, SCH-351125 and triazaspiro[5.5]undecane derivatives) were examined using a binding test system of CCR5 endogenous ligand to CCR5.
Human CCR5 expressing cells (hCCR5-CHO cells) were inoculated into a culture plate, cultured using a medium (Ham's F-12 medium/10% FBS/Antibiotic-Antimycotic) at 37° C. for 1 day (or 2 days) in a CO2 incubator of 5% CO2 and used in the test. The medium in each well was discarded, the cells were washed with an assay buffer (Ham's F-12 medium/0.5% BSA/20 mmol/l HEPES), and the assay buffer was added to each well. A compound to be tested having respective concentration was added thereto and incubated at room temperature for 40 minutes, and then the cells were washed 8 times with PBS (1 ml/well). The assay buffer was further added and incubated at 37° C. for 4 hours. After 4 hours, the assay buffer was discarded and a radioisotope-labeled ligand was added. The culture mixture containing the cells was incubated at room temperature for 40 minutes and then washed three times with 1 ml/well of ice-cooled PBS. The cells were lysed with 1 mol/I sodium hydroxide aqueous solution, and radioactivity of the cell lysate was measured using a γ counter.

hCCR5 [2] = target: T1, hCCR5; assay: Inhibitory action upon the hCCR5 binding of tritium-labeled compound 1 (competition test); set-up: expressed in transfected cells; host or cells: Ba/F3 cells electroporated with linearised pEF-BOS-bsr/hCCR5, blasticidin-selected clone; conditions: hCCR5-CHO cells; for inhibition of the hCCR5 binding of tritium-labeled compound 1: when the concentration was increased
Experimental: Human CCR5 expressing cells (hCCR5-CHO cells) were inoculated into a culture plate, cultured using a medium (Ham's F-12 medium/10% FBS/Antibiotic-Antimycotic) at 37° C. for 1 day in a CO2 incubator of 5% CO2 and used in the test. The medium in each well was discarded, the cells were washed with an assay buffer (Ham's F-12 medium/0.5% BSA/20 mmol/l HEPES), and the assay buffer was added thereto. […] After incubation at room temperature for 2 hours, the cells were washed with 1 ml/well of ice-cooled D-PBS. The cells were lysed with 1 mol/l NaOH and neutralized, and then a scintillator (ACS II, Amersham) was added thereto. Radioactivity of each vial was measured using a liquid scintillation counter (TRI-CARB 2900TR, Perkin Elmer Life Sciences).

hCCR5 [3] = target: T1, hCCR5; assay: Anti-hCCR5 antibody binding inhibition test (flow cytometry); set-up: expressed in transfected cells; host or cells: Ba/F3 cells electroporated with linearised pEF-BOS-bsr/hCCR5, blasticidin-selected clone; conditions: hCCR5-CHO cells, 10 μmol/l of each compound, FITC-labeled antibody
Experimental: […] The medium was removed from the flask, and the cells were peeled off and recovered by adding 1 mmol/l EDTA/PBS. The recovered cells were washed once with PBS and again suspended in PBS, and then the number of cells was counted. After centrifugation and subsequent removal of the supernatant by suction, the cells were suspended in an assay buffer (0.5% FBS/Ham's F-12 medium). Each of the compounds to be tested was added to the cell suspension and incubated on ice. An FITC-labeled anti-hCCR5 antibody (45531.111 or 45523.111) or an FITC-labeled isotype control antibody was further added thereto and allowed to undergo the reaction on ice under shading. After the reaction, the cells were washed twice with ice-cooled PBS and again suspended in ice-cooled FACS buffer (2% FBS/PBS), and the amount (fluorescence intensity) of the bound anti-hCCR5 antibody was measured using a flow cytometer (BECTON DICKINSON).

hCCR5 [4] = target: T1, hCCR5; assay: Migration test induced by MIP-1α using hCCR5-Ba/F3 cells; type: cell-based; set-up: expressed in transfected cells; host or cells: Ba/F3 cells electroporated with linearised pEF-BOS-bsr/hCCR5, blasticidin-selected clone; conditions: 24 well transwell, 3 hours; read-out: IC50, inhibition of migration of hCCR5-Ba/F3 cells by MIP-1α
Experimental: Firstly, 0.5 ml of a medium containing […] was added to the lower chamber (transwell bottom) of a 24 well transwell plate. […] The migration was started by moving the upper chamber wells of the transwell plate to the lower chamber wells containing chemokine. […] Measurement of the number of cells was carried out using a flow cytometer (BECTON DICKINSON), and the number of cells inside the gate (FSC×SSC) was counted. The number of migrated cells was defined as their ratio (%) to the count when the firstly added cells were analyzed by FACS, and the IC50 value was calculated from the inhibitory activity for the DMSO control group.

[5] = Blood plasma levels of compound 1 in mouse after administration into abdominal cavity; type: in vivo; conditions: intraperitoneal, Balb/c mouse, read-out: blood plasma level
hCCR5 [6] = target: T1, hCCR5; assay: Persistency of hCCR5 binding in the living body of mouse after compound administration; type: in vivo; set-up: expressed in transfected cells; host or cells: Ba/F3 cells electroporated with linearised pEF-BOS-bsr/hCCR5, blasticidin-selected clone; conditions: Balb/c mouse
Experimental: The peripheral blood was centrifuged using Lymphocyte-M to prepare PBMC, and the spleen was crushed, subjected to hemolytic treatment and then washed to obtain cells. The thus prepared cells were stained with PE-labeled anti-hCCR5 antibody (45531.111). CFSE-positive hCCR5-Ba/F3 Cells were detected by a flow cytometer, and fluorescence intensity (mean value) of PE-labeled anti-hCCR5 antibodies (2D7 and 45531.111) bound to the cells was measured.
The occupying ratio was calculated by the following formulae.
Correction Value [formula]
Receptor Occupying Ratio (R) [formula]

T1 sequence (P51681 whole entry): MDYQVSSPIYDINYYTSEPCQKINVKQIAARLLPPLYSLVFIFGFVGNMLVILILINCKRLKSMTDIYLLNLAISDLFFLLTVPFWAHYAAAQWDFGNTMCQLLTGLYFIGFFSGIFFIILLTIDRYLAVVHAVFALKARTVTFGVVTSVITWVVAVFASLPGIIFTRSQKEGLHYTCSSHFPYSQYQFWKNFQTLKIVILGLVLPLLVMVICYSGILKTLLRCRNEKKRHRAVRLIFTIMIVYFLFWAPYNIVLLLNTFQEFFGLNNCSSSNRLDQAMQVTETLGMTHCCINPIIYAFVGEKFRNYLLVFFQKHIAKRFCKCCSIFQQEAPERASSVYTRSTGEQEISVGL

IC50 (hCCR5 [1]) [nM] | inhibitory activity, times higher than that of SCH-351125 (hCCR5 [1]) | inhibitory activity, times higher than that of TAK-779 (hCCR5 [1]) | SMILES | inhibition of the hCCR5 binding of tritium-labeled compound 1 (hCCR5 [2]) | inhibition of binding of anti-hCCR5 antibody 45523.111 to hCCR5 expressing cells (hCCR5 [3]) | inhibition of binding of anti-hCCR5 antibody 45531.111 to hCCR5 expressing cells (hCCR5 [3]) | IC50 (hCCR5 [4]) | inhibition of binding of anti-hCCR5 antibody 45531.111 to hCCR5 expressing cells (hCCR5 [3]; hydrochloride) | further results
16.7 | – | – | CCO/N=C(\c1ccc(Br)cc1)C1CCN(C2(C)CCN(C(=O)c3c(C)cc[n+]([O-])c3C)CC2)CC1 [SCH-351125] | complete inhibition | inhibited binding; also recorded: strongly inhibited | weak | 14.4 nM and 21 nM | – | –
– | about 4 times | about 2.5 times | CCCCN1C(=O)[C@@H]([C@H](O)C2CCCCC2)NC(=O)C12CCN(Cc1ccc(Oc3ccc(C(=O)O)cc3)cc1)CC2.Cl [compound 1, (3R)-1-butyl-2,5-dioxo-3-((1R)-1-hydroxy-1-cyclohexylmethyl)-9-(4-(4-carboxyphenyloxy)phenylmethyl)-1,4,9-triazaspiro[5.5]undecane hydrochloride] | – | strongly inhibited | – | – | strongly inhibited; also recorded: strong | concentration at 0.5 h ([5]; 3 mg/kg into abdominal cavity): 352 nM; concentration at 4 h ([5]; 3 mg/kg into abdominal cavity): 5 nM; concentration at 8 h ([5]; 3 mg/kg into abdominal cavity): 1 nM; concentration at 0.5 h ([5]; 30 mg/kg into abdominal cavity): 1610 nM; concentration at 4 h ([5]; 30 mg/kg into abdominal cavity): 22 nM; concentration at 8 h ([5]; 30 mg/kg into abdominal cavity): 4 nM; hCCR5 occupied in the spleen (hCCR5 [6]; 3 mg/kg into abdominal cavity, 0.5 hours): 92%; hCCR5 occupied in the spleen (hCCR5 [6]; 3 mg/kg into abdominal cavity, 4 hours): 55%; hCCR5 occupied in the spleen (hCCR5 [6]; 3 mg/kg into abdominal cavity, 8 hours): 32%; hCCR5 occupied in the spleen (hCCR5 [6]; 30 mg/kg into abdominal cavity, 0.5 hours): 96%; hCCR5 occupied in the spleen (hCCR5 [6]; 30 mg/kg into abdominal cavity, 4 hours): 69%; hCCR5 occupied in the spleen (hCCR5 [6]; 30 mg/kg into abdominal cavity, 8 hours): 54%; competition with TAK-779 and SCH-351125 for CCR5 (hCCR5 [2]; displacement curves shifted in parallel, hydrochloride): competes; also recorded: Competitively antagonizes
1.5 | about 11 times | about 7 times | CCCCN1C(=O)[C@@H]([C@H](O)C2CCCCC2)NC(=O)C12CCN(Cc1ccc(Oc3ccc(C(=O)NC)cc3)cc1)CC2.Cl [compound 2, (3R)-1-butyl-2,5-dioxo-3-((1R)-1-hydroxy-1-cyclohexylmethyl)-9-(4-(4-methylaminocarbonylphenyloxy)phenylmethyl)-1,4,9-triazaspiro[5.5]undecane hydrochloride] | – | strongly inhibited | – | – | strongly inhibited; also recorded: strong | –

SMILES | IC50 (hCCR5 [1]) [nM] | inhibitory activity, times higher than that of SCH-351125 (hCCR5 [1]) | inhibitory activity, times higher than that of TAK-779 (hCCR5 [1]) | inhibition of the hCCR5 binding of tritium-labeled compound 1 (hCCR5 [2]) | inhibition of binding of anti-hCCR5 antibody 45523.111 to hCCR5 expressing cells (hCCR5 [3]) | inhibition of binding of anti-hCCR5 antibody 45531.111 to hCCR5 expressing cells (hCCR5 [3]) | IC50 (hCCR5 [4]) | inhibition of binding of anti-hCCR5 antibody 45531.111 to hCCR5 expressing cells (hCCR5 [3]; hydrochloride) | further results
Cc1ccc(-c2ccc3c(c2)C=C(C(=O)Nc2ccc(C[N+](C)(C)C4CCOCC4)cc2)CCC3)cc1.[Cl-] [TAK-779] | 10.4 | – | – | complete inhibition | only weakly; also recorded: weak inhibition | only weakly and weak | 55 nM | – | –
